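Exposure lasted 48 hours, with cells grown in 96-well plates and compounds tested at five concentrations. GI50: concentration for 50% inhibition of growth. Definition used: TGI = concentration required for complete inhibition of growth.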
Tests used:
Assay in all cases: NCI-60 cell line screen, 48 h
[1] = system: NCI/ADR-RES ovarian
[2] = system: IGROV1 ovarian
[3] = system: U251 CNS
[4] = system: HL-60(TB) leukemia
[5] = system: RXF 393 renal
[6] = system: OVCAR-5 ovarian
[7] = system: A549 NSCLC
[8] = system: SNB-19 CNS
[9] = system: SW-620 colon
[10] = system: MCF7 breast
[11] = system: SF-268 CNS
[12] = system: HCT-116 colon
[13] = system: MDA-MB-231 breast
[14] = system: HOP-62 NSCLC
[15] = system: EKVX NSCLC
[16] = system: UO-31 renal
[17] = system: NCI-H23 lung
[18] = system: RPMI-8226 leukemia
[19] = system: HCT-15 colon
[20] = system: KM12 colon
[21] = system: UACC-62 melanoma
[22] = system: SF-539 CNS
[23] = system: COLO 205 colon
[24] = system: MALME-3M melanoma
[25] = system: SK-MEL-5 melanoma
[26] = system: CCRF-CEM leukemia
[27] = system: 786-0 renal
[28] = system: HT29 colon
[29] = system: OVCAR-8 ovarian
[30] = system: A498 renal
[31] = system: HS 578T breast
[32] = system: NCI-H226 lung
[33] = system: SN12C renal
[34] = system: UACC-257 melanoma
[35] = system: PC-3 prostate
[36] = system: ACHN renal
[37] = system: SR leukemia
[38] = system: MDA-MB-435
[39] = system: SF-295 CNS
[40] = system: OVCAR-3 ovarian
[41] = system: DU-145 prostate
[42] = system: NCI-H522 lung
[43] = system: SK-MEL-28 melanoma
[44] = system: HOP-92 NSCLC
[45] = system: K-562 leukemia
[46] = system: HCC-2998 colon
[47] = system: MOLT-4 leukemia
[48] = system: M14 melanoma
[49] = system: SK-OV-3 ovarian
[50] = system: BT-549 breast
[51] = system: NCI-H460 lung
[52] = system: SK-MEL-2 melanoma
[53] = system: CAKI-1 renal
[54] = system: SNB-75 CNS
[55] = system: LOX IMVI melanoma
[56] = system: OVCAR-4 ovarian
[57] = system: TK-10 renal
[58] = system: T-47D breast
[59] = system: MDA-N

CN(C)CCn1cc(-c2ccc3c(Nc4ccc(CC(=O)Nc5cccc(F)c5)cc4)ncnc3c2)cn1
GI50 [1]: > 10 µM | TGI [1]: > 10 µM | GI50 [2]: 2.01 µM | TGI [2]: 6.41 µM | GI50 [3]: 1.56 µM | TGI [3]: 3.45 µM | GI50 [4]: 1.95 µM | TGI [4]: 4.85 µM | GI50 [5]: 1.35 µM | TGI [5]: 2.84 µM | GI50 [6]: 1.58 µM | TGI [6]: 4.26 µM | GI50 [7]: 1.3 µM | TGI [7]: 3.46 µM | GI50 [8]: 1.34 µM | TGI [8]: 5.39 µM | GI50 [9]: 1.05 µM | TGI [9]: 2.91 µM | GI50 [10]: 1.21 µM | TGI [10]: 3.55 µM | GI50 [11]: 1.43 µM | TGI [11]: 3.39 µM | GI50 [12]: 1.26 µM | TGI [12]: 2.72 µM | GI50 [13]: 1.55 µM | TGI [13]: 3.35 µM | GI50 [14]: > 10 µM | TGI [14]: > 10 µM | GI50 [15]: 5.89 µM | TGI [15]: > 10 µM | GI50 [16]: 5.67 µM | TGI [16]: > 10 µM | GI50 [17]: 1.87 µM | TGI [17]: 4.98 µM | GI50 [18]: 2.32 µM | TGI [18]: 5.93 µM | GI50 [19]: 4.44 µM | TGI [19]: > 10 µM | GI50 [20]: 0.393 µM | TGI [20]: 1.97 µM | GI50 [21]: 6.4 µM | TGI [21]: > 10 µM | GI50 [22]: 0.0918 µM | TGI [22]: 1.97 µM | GI50 [23]: 0.0559 µM | TGI [23]: 3.22 µM | GI50 [24]: 4.7 µM | TGI [24]: > 10 µM | GI50 [25]: > 10 µM | TGI [25]: > 10 µM | GI50 [26]: 0.0178 µM | TGI [26]: > 10 µM | GI50 [27]: 1.42 µM | TGI [27]: 2.87 µM | GI50 [28]: 1.29 µM | TGI [28]: 3.16 µM | GI50 [29]: 1.6 µM | TGI [29]: 6.39 µM | GI50 [30]: > 10 µM | TGI [30]: > 10 µM | GI50 [31]: 1.92 µM | TGI [31]: > 10 µM | GI50 [32]: > 10 µM | TGI [32]: > 10 µM | GI50 [33]: 1.53 µM | TGI [33]: 3.64 µM | GI50 [34]: 1.84 µM | TGI [34]: 5.68 µM | GI50 [35]: 1.75 µM | TGI [35]: 7.92 µM | GI50 [36]: 4.24 µM | TGI [36]: > 10 µM | GI50 [37]: 1.53 µM | TGI [37]: > 10 µM | GI50 [38]: 2.86 µM | TGI [38]: > 10 µM | GI50 [39]: 2.95 µM | TGI [39]: > 10 µM | GI50 [40]: 1.6 µM | TGI [40]: 3.48 µM | GI50 [41]: 1.67 µM | TGI [41]: 3.51 µM | GI50 [42]: 1.32 µM | TGI [42]: 3.22 µM | GI50 [43]: 1.61 µM | TGI [43]: 3.02 µM | GI50 [44]: 6.27 µM | TGI [44]: > 10 µM | GI50 [45]: 2.72 µM | TGI [45]: > 10 µM | GI50 [46]: 1.77 µM | TGI [46]: 3.84 µM | GI50 [47]: 2.51 µM | TGI [47]: > 10 µM | GI50 [48]: 1.49 µM | TGI [48]: 3.26 µM | GI50 [49]: > 10 µM | TGI [49]: > 10 µM | GI50 [50]: 4.78 µM | TGI [50]: > 10 µM | GI50 [51]: 0.087 µM | TGI [51]: 2.49 µM | GI50 [52]: > 10 µM | TGI [52]: > 10 µM | GI50 [53]: 1.24 µM | TGI [53]: 3.4 µM | GI50 [54]: 0.0472 µM | TGI [54]: > 10 µM | GI50 [55]: 1.33 µM | TGI [55]: 3.02 µM | GI50 [56]: 1.53 µM | TGI [56]: 3.09 µM | GI50 [57]: 1.62 µM | TGI [57]: 4.21 µM | GI50 [58]: 1.41 µM | TGI [58]: 4.54 µM

CC(=O)c1ccc2c(c1)CC1(C2)Cc2cc3c(cc2C1)C(=O)CC3 (centres undefined)
TGI [1]: 17.2 µM | TGI [2]: 39.2 µM | TGI [3]: 34 µM | TGI [4]: 2.1 µM | TGI [5]: 17.7 µM | TGI [6]: > 100 µM | TGI [7]: 29.2 µM | TGI [8]: > 100 µM | TGI [9]: > 100 µM | TGI [10]: 26.4 µM | TGI [11]: > 100 µM | TGI [12]: 8.8 µM | TGI [13]: 11.2 µM | TGI [14]: 16.1 µM | TGI [15]: > 89.6 µM | TGI [16]: 66.9 µM | TGI [17]: 14.7 µM | TGI [18]: 3.61 µM | TGI [19]: 13.2 µM | TGI [20]: 7.83 µM | TGI [21]: 28.7 µM | TGI [22]: 3.39 µM | TGI [23]: 1.66 µM | TGI [24]: 25.7 µM | TGI [25]: 11.9 µM | TGI [26]: 3.87 µM | TGI [27]: 20.9 µM | TGI [28]: 6.32 µM | TGI [29]: 19.5 µM | TGI [30]: 4.22 µM | TGI [31]: > 69.2 µM | TGI [32]: 2.33 µM | TGI [33]: > 100 µM | TGI [34]: 29.1 µM | TGI [35]: 17.8 µM | TGI [36]: 35.2 µM | TGI [37]: 0.963 µM | TGI [38]: 0.636 µM | TGI [39]: 13 µM | TGI [40]: 5.96 µM | TGI [41]: 25.8 µM | TGI [42]: 14.2 µM | TGI [43]: 30.4 µM | TGI [44]: 32.8 µM | TGI [45]: 2.32 µM | TGI [46]: 7.48 µM | TGI [59]: 0.492 µM | TGI [48]: 17.6 µM | TGI [49]: > 66.1 µM | TGI [51]: 12.2 µM | TGI [52]: 5.75 µM | TGI [53]: 33.5 µM | TGI [54]: > 100 µM | TGI [55]: 28.8 µM | TGI [56]: > 73.6 µM | TGI [57]: > 83 µM | TGI [58]: 69.3 µM

COc1ccc2cc(C(=O)NCCc3ccccc3)ccc2c1OC
TGI [1]: > 100 µM | TGI [2]: > 100 µM | TGI [3]: > 100 µM | TGI [5]: 70.7 µM | TGI [6]: > 100 µM | TGI [7]: > 100 µM | TGI [8]: > 100 µM | TGI [9]: > 100 µM | TGI [10]: > 100 µM | TGI [11]: > 100 µM | TGI [12]: > 100 µM | TGI [13]: 87.4 µM | TGI [14]: 75.3 µM | TGI [15]: > 100 µM | TGI [17]: > 100 µM | TGI [18]: > 100 µM | TGI [19]: > 100 µM | TGI [21]: > 100 µM | TGI [22]: 70.3 µM | TGI [23]: > 100 µM | TGI [24]: > 100 µM | TGI [25]: > 100 µM | TGI [27]: > 100 µM | TGI [28]: > 100 µM | TGI [29]: > 100 µM | TGI [30]: > 100 µM | TGI [31]: > 100 µM | TGI [32]: > 100 µM | TGI [33]: > 100 µM | TGI [34]: > 100 µM | TGI [35]: > 100 µM | TGI [36]: > 100 µM | TGI [37]: > 100 µM | TGI [38]: > 100 µM | TGI [39]: > 100 µM | TGI [40]: > 100 µM | TGI [41]: > 100 µM | TGI [43]: > 100 µM | TGI [44]: > 100 µM | TGI [45]: > 100 µM | TGI [46]: > 100 µM | TGI [47]: > 100 µM | TGI [59]: > 100 µM | TGI [48]: > 100 µM | TGI [49]: > 100 µM | TGI [51]: > 100 µM | TGI [52]: > 100 µM | TGI [53]: > 100 µM | TGI [55]: > 100 µM | TGI [56]: > 100 µM | TGI [58]: > 100 µM

Reference: PubChem BioAssay (NCI)
